Assay results from US20090004162A1, “Hecgf-1 Related Polymorphisms and Applications Thereof” (priority 2005, published 2009).

Assays:
CTL clone RDR173 [1] = experiment: IFN-γ ELISA: recognition by CTL clone RDR173 of target cells pulsed with long peptide (processing and presentation); type: cell-based, human
Protocol: FIG. 7. Pulsing target cells with the 23-mer peptide leads to efficient processing and presentation LB-ECGF-1H epitope. CD 14+ cells were pulsed with titrated concentrations of the 11- and 23-mer hECGF-1 peptide for 4 h at 37° C. Target cells (3×10^4) were incubated with CTL clone RDR173 (10^4) for 24 h at 37° C. Release of IFN-γ in the supernatant was measured by ELISA.
FIG. 8. The LB-ECGF-1H epitope can be processed and presented by various target cells upon pulsing with the 23-mer peptide. HLA-B7-positive EBV-LCL cells (EBV), peripheral blood lymphocytes (PBL), phytohemagglutinin activated T cells (PHA blasts), CD14^+ cells (CD14) and CD19^+ cells (CD19) were pulsed with titrated concentrations of the 23-mer HECGF-1 peptide for 4 h at 37° C. Target cells (3×10^4) were incubated with CTL clone RDR173 (10^4) for 24 h at 37° C. Release of IFN-γ in the supernatant was measured by ELISA.
The 23-mer peptide […] containing the epitope (depicted in bold) was synthesized. Target cells were pulsed with titrated concentration of the long peptide for 4 hours at 37° C. and tested for recognition by CTL clone RDR173.

CTL clone RDR173 [2] = experiment: IFN-γ ELISA: recognition of peptide-pulsed donor-derived EBV-LCL cells by CTL clone RDR173; type: cell-based, human; settings: peptide pulsed on donor-derived EBV-LCL cells 2 h 37° C., coculture 24 h
Protocol: FIG. 5. CTL clone RDR173 recognizes the minimal epitope RPHAIRRPLAL. (a) Overlapping 9-, 10- and 11-mer peptides (1 μg/ml) were pulsed on donor-derived EBV-LCL cells for 2 h at 37° C. Peptide-pulsed EBV-LCLs were cocultured with CTL clone RDR173 for 24 h. Release of IFN-γ in the supernatant was measured by ELISA. (b) Increasing concentrations of the patient-derived peptide RPHAIRRPLAL (filled symbols) and the donor-derived peptide RPRAIRRPLAL (open symbols) were pulsed on donor-derived EBV-LCL cells for 2 h at 37° C. Peptide-pulsed EBV-LCLs were cocultured with CTL clone RDR173 for 24 h. Release of IFN-γ in the supernatant was measured by ELISA.
EBV-LCL cells were seeded at 3×10^4 cells/well together with 5×10^3 T cells in 96-well round bottom plate. For blocking studies, target cells were preincubated with antibodies against HLA class I (w6/32), HLA class II (PdV5.2) or HLA-B/C alleles (B1.23.2) for 30 min at room temperature. After 24 h incubation at 37° C., release of IFN-γ in the supernatant was measured using standard ELISA (Sanguin, Amsterdam, the Netherlands).

Row | Sequence | Recognition by CTL clone RDR173 (IFN-γ release) after pulsing with long peptide (CTL clone RDR173 [1]; CD14+ cells pulsed 4 h at 37° C., titrated concentrations, FIG. 7) | Processing and presentation of the epitope by various target cells (CTL clone RDR173 [1]; EBV-LCL, PHA blast and CD14+ cells pulsed 4 h at 37° C., FIG. 8) | Recognition by CTL clone RDR173 (IFN-γ release) (CTL clone RDR173 [2])
1 | RPAGGARTLRPHAIRRPLALRRA [23-mer peptide] | efficient recognition | have the ability to process and present the epitope | 
2 | RPHAIRRPLAL [LB-ECGF-1H] |  |  | the epitope recognized by CTL clone RDR173
3 | RPRAIRPLAL [LB-ECGF-1R, donor-derived peptide variant with Arg instead of His] |  |  | not recognized
